Where two headings read alike, the source gives them in different places.

One assay concerns the target T1, PKC β II (Homo sapiens, UniProt P05771).
T1 construct: purchased CALBIOCHEM
In words: PKC enzyme assay (BIOTRAK Protein kinase C enzyme assay system, 32P-ATP phosphorylation of peptide […]). Type of assay: biochemical. The note with it: for Ratio α/β: IC50 PKC α / IC50 PKC β II.

The target of the next assay is T2, PKC α (Homo sapiens, UniProt P17252).
T2 construct: purchased CALBIOCHEM
The description is as above. Type of assay: biochemical. In short, it runs like this: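 Recombinant human PKC (400 ng/ml solution) phosphorylated the supplied peptide with [γ-32P]ATP in calcium, phosphatidylserine/PMA, DTT and Mg-ATP buffer, 15 min at 37°C. Compounds were tested at 1 nM-10 µM final. Phosphocellulose-bound radioactivity relative to DMSO gave inhibition, from which IC50 was calculated.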

Where [1] appears, read: Protein Kinase C, Human Recombinant, test substance 1 nM-10 µM, 37°C, 15 minutes, read-out: Inhibition of PKC activity IC50 PKC β II.
The mark [2] stands for this setting: Protein Kinase C, Human Recombinant, test substance 1 nM-10 µM, 37°C, 15 minutes, read-out: Inhibition of PKC activity IC50 PKC α.
Where [3] appears, read: read-out: Inhibition of PKC activity IC50 PKC β II, Protein Kinase C, Human Recombinant, test substance 1 nM-10 µM, 37°C, 15 minutes.
Setting [4] is: read-out: Inhibition of PKC activity IC50 PKC α, Protein Kinase C, Human Recombinant, test substance 1 nM-10 µM, 37°C, 15 minutes.

T1 sequence (P05771 other isoform, or with tags, fused parts or gaps): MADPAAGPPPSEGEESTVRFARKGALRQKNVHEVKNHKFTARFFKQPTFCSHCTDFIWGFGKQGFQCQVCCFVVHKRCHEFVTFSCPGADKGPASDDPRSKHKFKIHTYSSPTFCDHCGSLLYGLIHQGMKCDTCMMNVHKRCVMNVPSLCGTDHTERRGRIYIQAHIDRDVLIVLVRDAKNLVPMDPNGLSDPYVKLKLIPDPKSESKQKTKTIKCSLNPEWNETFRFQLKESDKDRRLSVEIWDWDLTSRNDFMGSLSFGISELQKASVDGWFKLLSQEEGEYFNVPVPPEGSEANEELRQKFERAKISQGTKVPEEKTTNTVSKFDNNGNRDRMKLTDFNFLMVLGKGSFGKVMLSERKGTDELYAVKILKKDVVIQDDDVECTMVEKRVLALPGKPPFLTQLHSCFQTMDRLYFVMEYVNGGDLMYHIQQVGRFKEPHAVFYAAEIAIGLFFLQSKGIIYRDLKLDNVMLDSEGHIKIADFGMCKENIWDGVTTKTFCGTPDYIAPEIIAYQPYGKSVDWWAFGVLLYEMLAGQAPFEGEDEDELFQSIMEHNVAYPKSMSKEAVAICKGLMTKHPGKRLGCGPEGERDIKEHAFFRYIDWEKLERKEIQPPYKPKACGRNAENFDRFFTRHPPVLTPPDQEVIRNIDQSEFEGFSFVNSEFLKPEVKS

Turning to `O=C1NC(=O)C(c2cn(CC3CCNCC3)c3ccccc23)=C1Nc1ccccc1` [Example 3-2, 3-(phenylamino)-4-[1-(4-piperidylmethyl)-1H-indol-3-yl]-1H-pyrrole-2,5-dione], the “Ratio α/β” value on PKC β II amounted to 19. Also, the IC50 – broadly, the concentration that inhibits the measured activity by half – was 16 nM at PKC β II (setting [1]) and 298 nM at PKC α (setting [2]).
The corresponding values for `O=C1NC(=O)C(c2cn(CCCn3ccnc3)c3ccccc23)=C1Nc1ccc(Br)cc1` [Example 2-66, 3-[(4-bromophenyl)amino]-4-[1-(3-imidazol-1-ylpropyl)-1H-indol-3-yl]-1H-pyrrole-2,5-dione] are 34, 27 nM and 908 nM.
The corresponding values for `O=C1NC(=O)C(c2c[nH]c3ccccc23)=C1Nc1cccc(Br)c1` [Example 1-10, 3-[(3-bromophenyl)amino]-4-(1H-indol-3-yl)-1H-pyrrole-2,5-dione] are 37, 226 nM and 8340 nM.
Consider `COc1ccc(NC2=C(c3c4n(c5ccccc35)C[C@@H](CO)C4)C(=O)NC2=O)cc1` [Example 4-62], for which, at PKC β II, the “Ratio α/β” value is 50. Moreover, the figures for the IC50 on PKC β II (setting [3]) and at PKC α (setting [4]) were 16 nM and 794 nM, respectively.
The corresponding values for `CCN(C)C[C@@H]1CCc2c(C3=C(Nc4ccc5c(c4)OCO5)C(=O)NC3=O)c3ccccc3n2C1` [Example 4-49] are 82, 33 nM and 2710 nM.
For `O=C1NC(=O)C(c2cn(CCCN3CCCCC3)c3ccccc23)=C1Nc1ccccc1` [Example 2-20, 3-[1-(3-piperidinopropyl)-1H-indol-3-yl]-4-(phenylamino)-1H-pyrrole-2,5-dione], the IC50 at PKC β II (setting [1]) is 17 nM; on PKC α (setting [2]), 726 nM.
In the case of `CN(C)C1CCN(CCCn2cc(C3=C(Nc4ccccc4)C(=O)NC3=O)c3ccccc32)CC1` [Example 2-34, 3-[1-{3-(4-dimethylaminopiperidino)propyl}-1H-indol-3-yl]-4-(phenylamino)-1H-pyrrole-2,5-dione], the “Ratio α/β” value on PKC β II was found to be 57. For the same compound, the results for the IC50 at PKC β II (setting [1]) and on PKC α (setting [2]) were 15 nM and 851 nM, respectively.
For `O=C1NC(=O)C(c2cn(CCCn3ccnc3)c3ccccc23)=C1Nc1ccccc1` [Example 2-36, 3-[1-(3-imidazol-1-ylpropyl)-1H-indol-3-yl]-4-(phenylamino)-1H-pyrrole-2,5-dione], the IC50 at PKC β II (setting [1]) is 5 nM; at PKC α (setting [2]) it was 331 nM.
Regarding `CN(C)CCN(C)CCCn1cc(C2=C(Nc3ccccc3)C(=O)NC2=O)c2ccccc21` [Example 2-14, 3-[1-{3-[N-(2-dimethylaminoethyl)-N-methylamino)propyl}-1H-indol-3-yl]-4-(phenylamino)-1H-pyrrole-2,5-dione], the “Ratio α/β” value on PKC β II stood at 70. Moreover, the IC50 was 40 nM on PKC β II (setting [1]) and 2790 nM at PKC α (setting [2]).
The corresponding values for `O=C1NC(=O)C(c2cn(CCCCN3CCC(O)CC3)c3ccccc23)=C1Nc1cccc(Cl)c1` [Example 2-27, 3-[(3-chlorophenyl)amino]-4-[1-{4-(4-hydroxypiperidino)butyl}-1H-indol-3-yl]-1H-pyrrole-2,5-dione] are 37, 26 nM and 973 nM.
The corresponding values for `O=C1NC(=O)C(c2cn(CCCN3CCC(Cc4ccccc4)CC3)c3ccccc23)=C1Nc1ccccc1` [Example 2-48, 3-[1-{3-(4-benzylpiperidino)propyl}-1H-indol-3-yl]-4-(phenylamino)-1H-pyrrole-2,5-dione] are 77, 18 nM and 1390 nM.
The corresponding values for `CN(C)CC1CCn2c(c(C3=C(Nc4ccccc4)C(=O)NC3=O)c3ccccc32)C1` (stereo not drawn) [Example 4-2, 3-[8-(dimethylaminomethyl)-6,7,8,9-tetrahydropyrido[1,2-a]indol-10-yl]-4-(phenylamino)-1H-pyrrole-2,5-dione] are 51, 5 nM and 257 nM.
Take `CN(C)CCCCn1cc(C2=C(Nc3ccccc3)C(=O)NC2=O)c2ccccc21` [Example 2-10, 3-[1-(4-dimethylaminobutyl)-1H-indol-3-yl]-4-(phenylamino)-1H-pyrrole-2,5-dione]: the “Ratio α/β” value at PKC β II was determined as 49. For the same compound, the figures for the IC50 on PKC β II (setting [1]) and on PKC α (setting [2]) were 15 nM and 730 nM, respectively.
For `O=C1NC(=O)C(c2cn(CCCO)c3ccccc23)=C1Nc1ccccc1` [Example 2-1, 3-[1-(3-hydroxypropyl)-1H-indol-3-yl]-4-(phenylamino)-1H-pyrrole-2,5-dione] the same measures were 54, 30 nM and 1620 nM.
`O=C1NC(=O)C(c2c[nH]c3ccccc23)=C1Nc1cccc(Cl)c1` [Example 1-6, 3-[(3-chlorophenyl)amino]-4-(1H-indol-3-yl)-1H-pyrrole-2,5-dione]: the “Ratio α/β” value at PKC β II is 35. Moreover, the IC50 on PKC β II (setting [1]) is 198 nM; at PKC α (setting [2]), 6910 nM.
`O=C1NC(=O)C(c2c3n(c4ccccc24)CCC(Cn2ccnc2)C3)=C1Nc1ccccc1` (stereo not drawn) [Example 4-3, 3-[8-(1-imidazolylmethyl)-6,7,8,9-tetrahydropyrido[1,2-a]indol-10-yl]-4-(phenylamino)-1H-pyrrole-2,5-dione]: the 50% inhibitory concentration (IC50) against PKC β II was 16 nM; on PKC α, 1630 nM.
On to `O=C1NC(=O)C(c2c3n(c4ccccc24)C[C@@H](CN2CCCC2)C3)=C1Nc1ccccc1` [Example 4-67], for which, on PKC β II, the “Ratio α/β” value is 68. The IC50 came to 8 nM on PKC β II (setting [1]) and 542 nM at PKC α (setting [4]).
Take `CN1CCCC(Cn2cc(C3=C(Nc4ccccc4)C(=O)NC3=O)c3ccccc32)C1` (stereo not drawn) [Example 3-3, 3-[1-{(1-methylpiperidin-3-yl)methyl}-1H-indol-3-yl]-4-(phenylamino)-1H-pyrrole-2,5-dione]: the “Ratio α/β” value at PKC β II is recorded as 47. The results for the IC50 on PKC β II (setting [1]) and on PKC α (setting [2]) were 57 nM and 2650 nM, respectively.
Regarding `O=C1NC(=O)C(c2cn(CCCn3ccnc3)c3ccccc23)=C1Nc1ccc(Cl)cc1` [Example 2-64, 3-[(4-chlorophenyl)amino]-4-[1-(3-imidazol-1-ylpropyl)-1H-indol-3-yl]-1H-pyrrole-2,5-dione], at PKC β II, the “Ratio α/β” value turned out to be 37. For the same compound, the IC50 was 20 nM at PKC β II (setting [1]) and 739 nM on PKC α (setting [2]).
In the case of `Cc1c(C2=C(Nc3ccccc3)C(=O)NC2=O)c2ccccc2n1CCCN1CCCC1` [Example 2-55, 3-[2-methyl-1-(3-pyrrolidin-1-ylpropyl)-1H-indol-3-yl]-4-(phenylamino)-1H-pyrrole-2,5-dione], the “Ratio α/β” value at PKC β II is 104. Moreover, the IC50 at PKC β II (setting [1]) was 96 nM; on PKC α (setting [2]) it was over 10000 nM.

Values taken from EP1120414A1, “DISUBSTITUTED MALEIMIDE COMPOUNDS AND MEDICINAL UTILIZATION THEREOF” (Japan Tobacco Inc., priority 1998, dated 2000).
